Measured values published in article PMC6197744, “Triazolo[4,5-d]pyrimidines as Validated General Control Nonderepressible 2 (GCN2) Protein Kinase Inhibitors Reduce Growth of Leukemia Cells” (Computational and Structural Biotechnology Journal, 2018).

Experiments:
Assay in all cases: NCI-60 one-dose screen
Type in all cases: cell-based
A549 = details: Homo sapiens; Non-Small Cell Lung A549, 10 μM, 48 h; read-out: Percent growth inhibition
Description: (§1) Compounds 1 and 2 were submitted to the National Cancer Institute NCI-60 Tumor Cell Screening Program (NCI number 800,700 and 800,701, respectively) for evaluation against the 60 cell line NCI panel at a single dose of 10 μM. […] Leukemia and breast cancer cell lines comprised the only cancer groups that were uniformly sensitive to both 1 and 2, with the greatest sensitivity seen in the leukemia SR cell line.
(§2) Compounds 1 and 2 were submitted to the NCI for growth inhibition screening against its panel of 60 cancer cell lines. The NCI screening protocol has extensively been described [[53], [54], [55], [56]]. Briefly, cancerous cell lines were grown in RPMI 1640 medium containing 5% fetal bovine serum and 2 mM L-glutamine. Depending on the doubling time of each cell line, 5000–40,000 cells were seeded in 96-well plates for 24 h. Cells were then treated with compounds 1 or 2 at a concentration of 10 μM and incubated for 48 h at 37 °C in a humidified atmosphere containing 5% CO2. The cells were then fixed and stained with sulforhodamine B (SRB) to determine their viability. The data were analyzed using a program called COMPARE to determine the percent growth inhibition of each compound.

CCRF-CEM = details: Homo sapiens, Leukemia CCRF-CEM, 48 h, read-out: Percent growth inhibition
Description: as §1, §2

UACC-257 = details: Homo sapiens; Melanoma UACC-257, 10 μM, 48 h; read-out: Percent growth inhibition
Description: as §1, §2

MCF7 = details: Homo sapiens; Breast MCF7, 10 μM, 48 h; read-out: Percent growth inhibition
Description: as §1, §2

SK-MEL-5 = details: Homo sapiens; Melanoma SK-MEL-5, 10 μM, 48 h; read-out: Percent growth inhibition
Description: as §1, §2

SF-268 = details: Homo sapiens; CNS SF-268, 10 μM, 48 h; read-out: Percent growth inhibition
Description: as §1, §2

MDA-MB-468 = details: Homo sapiens; Breast MDA-MB-468, 10 μM, 48 h; read-out: Percent growth inhibition
Description: as §1, §2

SK-MEL-28 = details: Homo sapiens; Melanoma SK-MEL-28, 10 μM, 48 h; read-out: Percent growth inhibition
Description: as §1, §2

ACHN = details: Homo sapiens, Renal ACHN, 48 h, read-out: Percent growth inhibition
Description: as §1, §2

OVCAR-4 = details: Homo sapiens; Ovarian OVCAR-4, 10 μM, 48 h; read-out: Percent growth inhibition
Description: as §1, §2

HCT-116 = details: Homo sapiens, HCT-116, 48 h, Colon HCT-116, 10 μM, read-out: Percent growth inhibition
Description: as §1, §2

RPMI-8226 = details: Homo sapiens; Leukemia RPMI-8226, 10 μM, 48 h; read-out: Percent growth inhibition
Description: as §1, §2

786-0 = details: Homo sapiens; Renal 786-0, 10 μM, 48 h; read-out: Percent growth inhibition
Description: as §1, §2

K-562 = details: Homo sapiens, K562; Leukemia K-562, 10 μM, 48 h; read-out: Percent growth inhibition
Description: as §1, §2

SR = details: Homo sapiens, 48 h, Leukemia SR, read-out: Percent growth inhibition
Description: as §1, §2

U251 = details: Homo sapiens, U-251; CNS U251, 10 μM, 48 h; read-out: Percent growth inhibition
Description: as §1, §2

IGROV1 = details: Homo sapiens, IGROV-1; Ovarian IGROV1, 10 μM, 48 h; read-out: Percent growth inhibition
Description: as §1, §2

UACC-62 = details: Homo sapiens; Melanoma UACC-62, 10 μM, 48 h; read-out: Percent growth inhibition
Description: as §1, §2

SNB-75 = details: Homo sapiens; CNS SNB-75, 10 μM, 48 h; read-out: Percent growth inhibition
Description: as §1, §2

OVCAR-5 = details: Homo sapiens; Ovarian OVCAR-5, 10 μM, 48 h; read-out: Percent growth inhibition
Description: as §1, §2

BT-549 = details: Homo sapiens; Breast BT-549, 10 μM, 48 h; read-out: Percent growth inhibition
Description: as §1, §2

SF-539 = details: Homo sapiens; CNS SF-539, 10 μM, 48 h; read-out: Percent growth inhibition
Description: as §1, §2

MOLT-4 = details: Homo sapiens; Leukemia MOLT-4, 10 μM, 48 h; read-out: Percent growth inhibition
Description: as §1, §2

DU-145 = details: Homo sapiens; Prostate DU-145, 10 μM, 48 h; read-out: Percent growth inhibition
Description: as §1, §2

NCI-H23 = details: Homo sapiens; Non-Small Cell Lung NCI-H23, 10 μM, 48 h; read-out: Percent growth inhibition
Description: as §1, §2

NCI-H522 = details: Homo sapiens; Non-Small Cell Lung NCI-H522, 10 μM, 48 h; read-out: Percent growth inhibition
Description: as §1, §2

PC-3 = details: Homo sapiens; Prostate PC-3, 10 μM, 48 h; read-out: Percent growth inhibition
Description: as §1, §2

| SMILES | inhibition at 10 µM (A549) [%] | inhibition at 10 µM (CCRF-CEM) [%] | inhibition at 10 µM (UACC-257) [%] | inhibition at 10 µM (MCF7) [%] | inhibition at 10 µM (SK-MEL-5) [%] | inhibition at 10 µM (SF-268) [%] | inhibition at 10 µM (MDA-MB-468) [%] | inhibition at 10 µM (SK-MEL-28) [%] | inhibition at 10 µM (ACHN) [%] | inhibition at 10 µM (OVCAR-4) [%] | inhibition at 10 µM (HCT-116) [%] | inhibition at 10 µM (RPMI-8226) [%] | inhibition at 10 µM (786-0) [%] | inhibition at 10 µM (K-562) [%] | inhibition at 10 µM (SR) [%] | inhibition at 10 µM (U251) [%] | inhibition at 10 µM (IGROV1) [%] | inhibition at 10 µM (UACC-62) [%] | inhibition at 10 µM (SNB-75) [%] | inhibition at 10 µM (OVCAR-5) [%] | also measured |
| --- | --- | --- | --- | --- | --- | --- | --- | --- | --- | --- | --- | --- | --- | --- | --- | --- | --- | --- | --- | --- | --- |
| CCn1cc(Nc2ncc3nnn(-c4ccc(C(=O)OC)cc4)c3n2)cn1 [Compound 1, Methyl 4-(5-((1-ethyl-1H-pyrazol-4-yl)amino)-3H-[1,2,3]triazolo[4,5-d]pyrimidin-3-yl)benzoate] | 18.6 | 39.5 | 13.6 | 11.6 | 40.4 | 0.6 | 6.13 | -4.08 | 1.27 | -12 | 42.7 | 10.8 | -6.68 | 20.9 | 43.4 | 27.6 | -16.8 | 5.19 | 23.4 | -5.43 | inhibition at 10 µM (BT-549): 24.2%; inhibition at 10 µM (SF-539): -9.47%; inhibition at 10 µM (MOLT-4): 21.6%; inhibition at 10 µM (DU-145): -9.96%; inhibition at 10 µM (NCI-H23): 3.87%; inhibition at 10 µM (NCI-H522): 24.3%; inhibition at 10 µM (PC-3): 16.7% |
| CCOc1ccc(-n2nnc3cnc(Nc4cnn(CC)c4)nc32)cc1 [Compound 2, 3-(4-Ethoxyphenyl)-N-(1-ethyl-1H-pyrazol-4-yl)-3H-[1,2,3]triazolo[4,5-d]pyrimidin-5-amine] | 25.2 | 14 | 21.3 | 24.2 | 26.4 | 12.7 | 9.91 | -2.62 | 17.8 | -14.7 | 43.7 | 17 | 21.7 | 17.2 | 57.5 | 24.3 | 5.39 | 1.67 | 44.6 | -11.8 | inhibition at 10 µM (BT-549): 16.2%; inhibition at 10 µM (SF-539): 32%; inhibition at 10 µM (MOLT-4): 23.2%; inhibition at 10 µM (DU-145): 2.46%; inhibition at 10 µM (NCI-H23): 5.25%; inhibition at 10 µM (NCI-H522): 31.8%; inhibition at 10 µM (PC-3): 23.4% |
